In patent US9156811B2 (priority 2008, dated 2015):

tested on: Trypanosome (T. brucei brucei); test: In-vitro antitrypanosomal efficacy assay (cell growth, resazurin); type: cell-based; conditions: T. brucei cell growth
Protocol: To column 12, 200 μl media was added to provide a no cells control. Plates were then incubated at 37° C. in an atmosphere of 5% CO2 for 69 hours, before the addition of 20 μl of 500 μM rezasurin solution, and a further incubation period of 4 hours. […] Concentration effect curves were fitted using non-linear regression using XLFit 4.2 and EC50 values determined.

SMILES | ED50 (μM) T. brucei
Cc1nn(C)c(C)c1N[S+](=O)([O-])c1ccc(N2CCC(N3CCCCC3)C2)nc1 (stereo not drawn) [DDD86477] | >1 µM
Cn1cc(N[S+](=O)([O-])c2c(Cl)cc(-c3ccnc(N4CCNCC4)c3)cc2Cl)cn1 [DDD86478, 2,6-Dichloro-N-(1-methyl-1H-pyrazol-4-yl)-4-(2-piperazin-1-yl-pyridin-4-yl)-benzenesulfonamide] | 0.24 µM
Cc1nn(C)c(C)c1N[S+](=O)([O-])c1ccc(-c2ccnc(N3CCNC(C)C3)c2)cc1 (stereo not drawn) [DDD87748] | 0.001 µM
Cc1nn(C)c(C)c1N[S+](=O)([O-])c1ccc(-c2ccnc(N3CCCCC3)c2)cc1 [DDD87749, 4-(3,4,5,6-Tetrahydro-2H-[1,2′]bipyridinyl-4′-yl)-N-(1,3,5-trimethyl-1H-pyrazol-4-yl)-benzenesulfonamide] | 1.28 µM
Cc1nn(C)c(C)c1N[S+](=O)([O-])c1ccc(-c2cccc(CCO)c2)cc1 [DDD87751, 3′-(2-Hydroxy-ethyl)-biphenyl-4-sulfonic acid (1,3,5-trimethyl-1H-pyrazol-4-yl)-amide] | >1 µM
Cc1nn(C)c(C)c1N[S+](=O)([O-])c1ccc(-c2cccc(CN3CCNC(c4ccccc4)C3)c2)cc1 (stereo not drawn) [DDD87754, 3′-(3-Phenyl-piperazin-1-ylmethyl)-biphenyl-4-sulfonic acid (1,3,5-trimethyl-1H-pyrazol-4-yl)-amide] | 1.6 µM
Cc1nn(C)c(C)c1N[S+](=O)([O-])c1ccc(N2CCCC(N3CCNCC3)C2)nc1 (stereo not drawn) [DDD87757] | 0.003 µM
CCN(CC)Cc1ccccc1-c1ccc([S+](=O)([O-])Nc2c(C)nn(C)c2C)cc1 [DDD87758, 2′-Diethylaminomethyl-biphenyl-4-sulfonic acid (1,3,5-trimethyl-1H-pyrazol-4-yl)-amide] | >1 µM
Cc1nn(C)c(C)c1NS(=O)(=O)c1ccc(-c2ccnc(N3CC(C)NC(C)C3)c2)cc1 (stereo not drawn) [DDD87761, 4-[2-(3,5-Dimethyl-piperazin-1-yl)-pyridin-4-yl]-N-(1,3,5-trimethyl-1H-pyrazol-4-yl)-benzenesulfonamide] | 0.02 µM
Cc1nn(C)c(C)c1N[S+](=O)([O-])c1ccc(-c2ccccc2CN2CCN(C)CC2)cc1 [DDD87764, 2′-(4-Methyl-piperazin-1-ylmethyl)-biphenyl-4-sulfonic acid (1,3,5-trimethyl-1H-pyrazol-4-yl)-amide] | >1 µM
Cc1nn(C)c(C)c1N[S+](=O)([O-])c1ccc(-c2cccc(CNCc3ccccc3)c2)cc1 [DDD87765, 3′-(Benzylamino-methyl)-biphenyl-4-sulfonic acid (1,3,5-trimethyl-1H-pyrazol-4-yl)-amide] | >1 µM
Cc1nn(C)c(C)c1N(C)[S+](=O)([O-])c1ccc(Br)cc1 [DDD87766, 4-Bromo-N-methyl-N-(1,3,5-trimethyl-1H-pyrazol-4-yl)-benzenesulfonamide] | >1 µM
Cc1nn(C)c(C)c1N[S+](=O)([O-])c1ccc(-c2cccc(C3CCNCC3)c2)cc1 [DDD87768, 3′-Piperidin-4-yl-biphenyl-4-sulfonic acid (1,3,5-trimethyl-1H-pyrazol-4-yl)-amide] | 0.06 µM
Cc1nn(C)c(C)c1N[S+](=O)([O-])c1c(Cl)cc(CCCN2CCN(C)CC2)cc1Cl [DDD87769, 2,6-Dichloro-4-[3-(4-methyl-piperazin-1-yl)-propyl]-N-(1,3,5-trimethyl-1H-pyrazol-4-yl)-benzenesulfonamide] | 0.008 µM
Cc1ncccc1N[S+](=O)([O-])c1ccc(-c2ccnc(N3CCNCC3)c2)cc1 [DDD87994, N-(2-Methyl-pyridin-3-yl)-4-(2-piperazin-1-yl-pyridin-4-yl)-benzenesulfonamide] | 0.11 µM
Cc1c(N[S+](=O)([O-])c2ccc(-c3ccnc(N4CCNCC4)c3)cc2)cnn1C [DDD87995, N-(1,5-Dimethyl-1H-pyrazol-4-yl)-4-(2-piperazin-1-yl-pyridin-4-yl)-benzenesulfonamide] | 0.02 µM
Cc1nn(C)c(C)c1N[S+](=O)([O-])c1ccc(C#CCN2CCN(C)CC2)cc1 [DDD87999, 4-[3-(4-Methyl-piperazin-1-yl)-prop-1-ynyl]-N-(1,3,5-trimethyl-1H-pyrazol-4-yl)-benzenesulfonamide] | >1 µM
Cc1nn(C)c(C)c1N[S+](=O)([O-])c1ccc(NCCC2CCN(C)CC2)nc1 [DDD88000, 6-[2-(1-Methyl-piperidin-4-yl)-ethylamino]-pyridine-3-sulfonic acid (1,3,5-trimethyl-1H-pyrazol-4-yl)-amide] | 0.77 µM
Cc1ncccc1N[S+](=O)([O-])c1ccc(-c2cccc(C3CCNCC3)c2)cc1 [DDD88003, 3′-Piperidin-4-yl-biphenyl-4-sulfonic acid (2-methyl-pyridin-3-yl)-amide] | 1.9 µM
Cc1nn(C)c(C)c1N[S+](=O)([O-])c1cc(F)c(Br)cc1F [DDD88004, 4-Bromo-3,6-difluoro-N-(1,3,5-trimethyl-1H-pyrazol-4-yl)-benzenesulfonamide] | >1 µM
Cc1nn(C)c(C)c1N[S+](=O)([O-])c1ccc(-c2cccc(CN(C)C)c2)cc1 [DDD88005, 3′-Dimethylaminomethyl-biphenyl-4-sulfonic acid (1,3,5-trimethyl-1H-pyrazol-4-yl)-amide] | 0.1 µM
Cc1nn(C)c(C)c1N[S+](=O)([O-])c1c(Cl)cc(-c2cccc(CN3CCCC3)c2)cc1Cl [DDD88009, 3,5-Dichloro-3′-pyrrolidin-1-ylmethyl-biphenyl-4-sulfonic acid (1,3,5-trimethyl-1H-pyrazol-4-yl)-amide] | 0.10 µM
CCCOc1cc(CN2CCN(C)CC2)cc(-c2ccc([S+](=O)([O-])Nc3c(C)nn(C)c3C)cc2)c1 [DDD88187, 5′-(4-Methyl-piperazin-1-ylmethyl)-3′-propoxy-biphenyl-4-sulfonic acid (1,3,5-trimethyl-1H-pyrazol-4-yl)-amide] | 2.15 µM
Cc1noc(C)c1N[S+](=O)([O-])c1ccc(-c2cccc(C3CCNCC3)c2)cc1 [DDD88189, 3′-Piperidin-4-yl-biphenyl-4-sulfonic acid (3,5-dimethyl-isoxazol-4-yl)-amide] | >1 µM
Cc1nn(C)c(C)c1N[S+](=O)([O-])c1ccc(CCCN2CCN(C)CC2)cc1 [DDD88191, 4-[3-(4-Methyl-piperazin-1-yl)-propyl]-N-(1,3,5-trimethyl-1H-pyrazol-4-yl)-benzenesulfonamide] | 0.67 µM
Cc1nn(C)c(C)c1N(C)[S+](=O)([O-])c1c(Cl)cc(-c2ccnc(N3CCNCC3)c2)cc1Cl [DDD88193, 2,6-Dichloro-N-methyl-4-(2-piperazin-1-yl-pyridin-4-yl)-N-(1,3,5-trimethyl-1H-pyrazol-4-yl)-benzenesulfonamide] | 0.005 µM
Cc1nn(C)c(C)c1N[S+](=O)([O-])c1ccc(-c2cc(CN3CCN(C)CC3)cc(OC(C)C)c2)cc1 [DDD88194, 3′-Isopropoxy-5′-(4-methyl-piperazin-1-ylmethyl)-biphenyl-4-sulfonic acid (1,3,5-trimethyl-1H-pyrazol-4-yl)-amide] | 2.0 µM
